Literature values, collected in US20230243813A1, “METHODS FOR SELECTING AND TREATING CANCER WITH FGFR3 INHIBITORS” (GENECENTRIC THERAPEUTICS, INC., priority 2020, published 2023).
Where two headings read alike, the source gives them in different places.

System: bladder cancer cell lines
Conditions: GDSC1/GDSC2 IC50 data, RNA-seq and Affymetrix U219 expression, FAS-1 to FAS-4 scores

Structure (SMILES)	sensitivity (IC50) of samples identified as altered by the FAS classifiers	sensitivity (IC50) of samples identified as altered by the FAS classifiers (listed as BIBF)
COC(=O)c1ccc2c(c1)NC(=O)/C2=C(\Nc1ccc(N(C)C(=O)CN2CCN(C)CC2)cc1)c1ccccc1 [BIBF 1120, nintedanib]	high sensitivity	showed samples with sensitivity
COc1cc2c(Oc3ccc(NC(=O)C4(C(=O)Nc5ccc(F)cc5)CC4)cc3F)ccnc2cc1OCCCN1CCOCC1 [foretinib, Foretinib]	showed samples with sensitivity	–
